These results are taken from publication PMC6274262, “Synthesis of Novel Symmetrical 1,4-Disubstituted 1,2,3-Bistriazole Derivatives via ‘Click Chemistry’ and Their Biological Evaluation” (Molecules, 2016).

The subject of one assay is S. cerevisiae RSKK 251. Briefly: Agar-well diffusion antimicrobial screening. Format: cell-based, Saccharomyces cerevisiae.
In the next assay the test system is E. coli ATCC 35218. Briefly: Agar-well diffusion antimicrobial screening. Format: cell-based. To be noted: Escherichia coli, ATCC35218, 18 h, read-out: Inhibition Zone Ec.
Assay [1] has as its system Y. pseudotuberculosis ATCC 911. Kind of assay: microbe, parasite or virus in culture. The class given is cell-based. The settings on record: Yersinia pseudotuberculosis, ATCC911, 18 h, read-out: Inhibition Zone Yp.
Another assay deals with P. aeruginosa ATCC 10145. Briefly: Agar-well diffusion antimicrobial screening. Format: cell-based. The settings on record: Pseudomonas aeruginosa, ATCC10145; 50 μL of DMSO stock (concentration in c1) per 5 mm well, 18 h at 35 °C; standard ampicillin 10 μg; read-out: Inhibition Zone Pa.
The subject of a further assay is S. aureus ATCC 25923. Briefly: Agar-well diffusion antimicrobial screening. Format: cell-based. To be noted: Staphylococcus aureus, ATCC25923; 50 μL of DMSO stock (concentration in c1) per 5 mm well, 18 h at 35 °C; standard ampicillin 10 μg; read-out: Inhibition Zone Sa.
A further assay relates to E. faecalis ATCC 29212. Kind of assay: Agar-well diffusion antimicrobial screening. Format: cell-based. The settings on record: Enterococcus faecalis, ATCC29212; 50 μL of DMSO stock (concentration in c1) per 5 mm well, 18 h at 35 °C; standard ampicillin 10 μg; read-out: Inhibition Zone Ef.
A further assay relates to B. cereus 709 Roma. Kind of assay: Agar-well diffusion antimicrobial screening. The class given is cell-based. To be noted: Bacillus cereus, 50 μL of DMSO stock (concentration in c1) per 5 mm well, 18 h at 35 °C, standard ampicillin 10 μg, read-out: Inhibition Zone Bc.
In assay [2] the target is T1, Electric eel acetyl-cholinesterase enzyme (AchE, Type-VI-S; EC 3.1.1.7) (Electrophorus electricus, UniProt O42275).
T1 construct: purchased Sigma-Aldrich Type-VI-S
T1 sequence (O42275 24-633): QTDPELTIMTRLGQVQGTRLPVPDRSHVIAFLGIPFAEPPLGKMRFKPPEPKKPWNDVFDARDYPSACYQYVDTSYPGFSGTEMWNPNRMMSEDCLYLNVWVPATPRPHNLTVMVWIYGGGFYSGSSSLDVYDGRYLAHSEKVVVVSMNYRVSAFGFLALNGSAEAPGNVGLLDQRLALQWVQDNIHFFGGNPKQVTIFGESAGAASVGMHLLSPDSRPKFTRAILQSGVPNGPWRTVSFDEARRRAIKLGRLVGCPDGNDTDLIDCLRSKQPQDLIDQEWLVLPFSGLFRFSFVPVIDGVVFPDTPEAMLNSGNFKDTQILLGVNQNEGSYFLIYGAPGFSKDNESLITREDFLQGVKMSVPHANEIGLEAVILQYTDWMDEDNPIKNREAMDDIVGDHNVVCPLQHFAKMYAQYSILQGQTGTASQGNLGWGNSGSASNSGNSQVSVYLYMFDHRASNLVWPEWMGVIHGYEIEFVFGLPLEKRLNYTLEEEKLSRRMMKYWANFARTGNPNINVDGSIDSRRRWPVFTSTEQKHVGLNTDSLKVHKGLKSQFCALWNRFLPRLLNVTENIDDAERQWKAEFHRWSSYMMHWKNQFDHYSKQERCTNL
Kind of assay: biochemical. To be noted: mean ± S.D. of three independent experiments; Tris-HCl pH 8.00, 412 nm. How it is done: Firstly, all of the compounds stock solution in DMF (1 × 10^−3 M) were prepared and then five different concentrations were prepared from stock solution in buffer (Tris-HCI pH 8.00) for experiments. Briefly 50 µL of 50 mM Tris-HCl buffer (pH 8.00), 125 µL of 3 mM DTNB (in buffer), 25 µL of 0.2 U/mL AChE and 25 µL of sample dissolved in buffer and incubated for 15 min. at 25 °C. Fifteen minutes later, 25 µL of 15 mM acetyl thiocholine iodide were added and incubated 5 min. at room temperature. The reaction was initiated by the addition of acetylcholine iodide. The hydrolysis of this substrate was monitored by the formation of the yellow 5-thio-2-nitrobenzoate anion as a result of the reaction DTNB with thiocholine, catalized by enzyme at a wave length of 412 nm using a 96-well microplate reader (Multiskan Go UV-spectrophotometer, Thermo Fisher Scientific Oy Ratastie 2, Vantaa, Finland).
Inhibition of AChE was calculated by the comparison of reaction rates of the samples relative to the blank sample (DMF in phosphate buffer pH = 8) using the Equation (1) where Acontrol is the activity of enzyme without test sample and Asample is the activity of enzyme with test sample: (1) Scavenging effects (%)=[(Acontrol−Asample)/Acontrol]×100
The experiments were carried out in triplicate and IC50 values were examined.

Assay [3] in a line: DPPH radical scavenging assay. The settings on record: 0.1 mM methanolic DPPH, 30 min in the dark, 517 nm; mean ± S.D., triplicate. How it is done: Some 1,2,3-triazole compounds are known to act either as inhibitors of free radical production or as radical scavengers. Therefore, the potential antioxidant property of the new 1,2,3-trizole compounds was evaluated by determining their DPPH and SOD radical scavenging ability. DPPH is a stable free radical that accepts an electron or hydrogen radical to become a stable species. Due to its odd electron, DPPH gives a strong absorption band at 517 nm. Antioxidants are suitable reducing agents and neutralize the free radicals by pairing the DPPH odd electron with a hydrogen atom, and the DPPH solution turns yellow, observed as the decrease in absorbance at 517 nm.
The compounds were tested for in vitro antioxidant activities by the 2,2-diphenyl-1-picrylhydrazyl (DPPH) free radical scavenging assay method. The total volume of the assay mixtures containing methanolic DPPH solution (0.1 mM) and different concentrations of samples was 1 mL. After incubation in the dark at room temperature for 30 min., absorbance of the samples (Asample) was measured at 517 nm. Assay mixture without compound was used as control (control absorbance, Acontrol). All experiments were carried out in triplicate and results were expressed as the mean ±standard deviation (S.D.). Butylatedhydroxyanisole (BHA) were used as the reference compound. Free radical scavenging effect was calculated using Equation (1).

A short description of assay [4]: Superoxide radical scavenging assay (NBT photo reduction method). To be noted: pH 7.8, 30 °C, 10 min, 560 nm, mean ± S.D., triplicate. The procedure:
Superoxide scavenging activity of the compounds and reference were tested in a non-enzymatic superoxide radical (O2^−•) generation assay using a modified spectrophotometrical nitro blue tetrazolium (NBT) photo reduction method. The total volume of the assay mixtures containing riboflavin (2 μM), methionine (13 mM), NBT ([…]), EDTA (0.1 mM), and the test samples (50 mM phosphate buffer, pH = 7.8) was 1 mL. After illuminating with a fluorescent lamp at 30 °C for 10 min., the absorbance of the samples (Asample) was measured at 560 nm. Assay mixture without the compound was used as control (control absorbance, Acontrol). All experiments were carried out in triplicate and results were expressed as the mean ± standard deviation (S.D.). Free O2^−• radical scavenging effect was calculated using Equation (1).

The next assay has as its system C. albicans ATCC 60193. Kind of assay: Agar-well diffusion antimicrobial screening. Format: cell-based, Candida albicans.
The next assay relates to M. smegmatis ATCC607. Kind of assay: Agar-well diffusion antimicrobial screening. Format: cell-based, Mycobacterium smegmatis. To be noted: Mycolicibacterium smegmatis, ATCC607, 72 h; 50 μL of DMSO stock (concentration in c1) per 5 mm well, BHI agar, 3 days at 35 °C; standard streptomycin 10 µg; read-out: Inhibition Zone Ms.

Consider “4-((1-(10-(4-((4-Formyl-2-methoxyphenoxy)methyl)-1H-1,2,3-triazol-1-yl)decyl)-1H-1,2,3-triazol-4-yl)-methoxy)-2-methoxybenzaldehyde [Compound 5f]”, for which the “Inhibition Zone Sc” value in the assay with S. cerevisiae RSKK 251 was “-”.

For `CC1(C)S[C@@H]2[C@H](NC(=O)[C@H](N)c3ccccc3)C(=O)N2[C@H]1C(=O)O` [Amp, Ampicillin], the zone of inhibition at 10 µg/disc in the assay on E. coli ATCC 35218 turned out to be 10 mm; in assay [1], 10 mm; in the assay on P. aeruginosa ATCC 10145 it was 18 mm; in the assay on S. aureus ATCC 25923, 10 mm; in the assay on E. faecalis ATCC 29212 it was 35 mm; in the assay with B. cereus 709 Roma, 15 mm.

In assay [2], `COc1cc(C(C)=O)ccc1OCc1cn(CCCCCCn2cc(COc3ccc(C(C)=O)cc3OC)nn2)nn1` [Compound 3d, 1-(4-((1-(6-(4-((4-Acetyl-2-methoxyphenoxy)methyl)-1H-1,2,3-triazol-1-yl)hexyl)-1H-1,2,3-triazol-4-yl)-methoxy)-2-methoxyphenyl)ethan-1-onen] gave an IC50 of 75.7 µM. Further, the “DPPH IC50” value in assay [3] is on record as 149.21 (±0.06) µg/mL. The “SOD IC50” value in assay [4] is reported as 128.24 (±0.10) µg/mL. The “Inhibition Zone Sc” value in the assay with S. cerevisiae RSKK 251 was “-”.

For `O=Cc1ccc(OCc2cn(CCCCCCCCn3cc(COc4ccc(C=O)cc4)nn3)nn2)cc1` [Compound 4e, 4,4′-(((Octane-1,8-diylbis(1H-1,2,3-triazole-1,4-diyl))bis(methylene))bis(oxy))dibenzaldehyde], the IC50 in assay [2] came out at 63.4 µM. Moreover, the “DPPH IC50” value in assay [3] is given as 192.04 (±0.09) µg/mL. For the same molecule, in assay [4], the “SOD IC50” value is reported as 88.86 (±0.09) µg/mL. Also, in the assay on C. albicans ATCC 60193, the “Inhibition Zone Ca” value is listed as 6 mm.

Regarding `OC(Cn1cncn1)(Cn1cncn1)c1ccc(F)cc1F` [Flu., Fluconazole, reference compound], the zone of inhibition at 5 µg/disc in the assay on C. albicans ATCC 60193 (Candida albicans, ATCC60193, 18 h, read-out: Inhibition Zone Ca) turned out to be 25 mm; with S. cerevisiae RSKK 251 (Saccharomyces cerevisiae, RSKK251, 50 μL of DMSO stock (concentration in c1) per 5 mm well, 18 h at 35 °C, standard fluconazole 5 μg, read-out: Inhibition Zone Sc) it was 25 mm.

With `[H]/N=C(/N)N[C@H]1[C@H](O)[C@@H](O)[C@H](O[C@@H]2O[C@@H](C)[C@](O)(C=O)[C@H]2O[C@@H]2O[C@@H](CO)[C@H](O)[C@@H](O)[C@@H]2NC)[C@@H](N/C(N)=N\[H])[C@@H]1O` [Strep, Streptomycin], the zone of inhibition at 10 µg/disc in the assay with M. smegmatis ATCC607 amounted to 35 mm.
